This passage reports IC50 results from PubChem BioAssay AID569 (University of Pittsburgh Molecular Library Screening Center, 2006).

The source made the active and inactive calls. No rule for the calls is given here. Some results are limits rather than exact numbers.

Chain of M-phase inducer phosphatase 2 (Homo sapiens) (P30305 whole entry, looked up, the tested form may be a part): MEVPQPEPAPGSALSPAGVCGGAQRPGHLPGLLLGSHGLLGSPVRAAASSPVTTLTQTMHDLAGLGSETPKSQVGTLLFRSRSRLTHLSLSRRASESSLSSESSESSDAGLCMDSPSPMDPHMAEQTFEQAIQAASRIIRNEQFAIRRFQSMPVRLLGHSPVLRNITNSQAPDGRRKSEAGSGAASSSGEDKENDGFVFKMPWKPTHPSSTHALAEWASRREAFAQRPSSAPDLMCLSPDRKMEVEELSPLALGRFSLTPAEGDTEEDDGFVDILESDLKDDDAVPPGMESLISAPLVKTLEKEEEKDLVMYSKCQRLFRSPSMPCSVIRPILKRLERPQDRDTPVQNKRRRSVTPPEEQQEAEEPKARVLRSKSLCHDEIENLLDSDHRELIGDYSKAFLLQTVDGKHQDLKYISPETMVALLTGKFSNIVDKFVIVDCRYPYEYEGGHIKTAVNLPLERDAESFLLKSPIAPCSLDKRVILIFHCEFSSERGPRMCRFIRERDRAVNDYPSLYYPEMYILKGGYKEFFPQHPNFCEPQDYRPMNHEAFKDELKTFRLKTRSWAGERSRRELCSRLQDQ

The assay has as its target M-phase inducer phosphatase 2 (Homo sapiens) (UniProt P30305). The assay can be described thus: Cdc25B phosphatase inhibitor potency retest, dose response, biochemical, catalytic domain, fluorescence, IC50 (AID 569). The note with it: recombinant Cdc25B phosphatase, fluorescence substrate.
In general, IC50 refers to the midpoint of a concentration-inhibition curve. For the molecule `O=C1CC(N2CCN(CCc3ccccn3)CC2)C(=O)N1c1ccc(Cl)cc1` (stereo unspecified), the IC50 was > 50 µM (inactive).
For `CCOc1cc(C2C(C#N)=C(N)Oc3n[nH]c(-c4ccccc4)c32)ccc1O` (stereo unspecified) the value was > 50 µM (inactive).
For `Oc1ccc2ccccc2c1C=NC12CN3CCN(CN(C3)C1)C2` the value was 9.53 µM; for `COc1cccc(N2CCN(C3CC(=O)N(c4cccc(Cl)c4)C3=O)CC2)c1` (stereo unspecified), > 50 µM (inactive).
For the molecule `Cc1nc2c(C)cccn2c1/C(O)=C1\C(=O)C(=O)N(CCN(C)C)C1c1ccncc1` (stereo unspecified), the IC50 is > 50 µM (inactive).
For the molecule `N#CC1=C(N)N2C(=C(C#N)C13CCCCC3)SC1CCCCC12O` (stereo unspecified), the IC50 is > 50 µM (inactive).
